The text below walks through data of patent publication US4863748A, “Dietary products and uses comprising methylsulfonylmethane” (priority 1986, dated 1989).

SMILES strings stand for the structures. Counter-ions that a name gives are not always drawn.

In one series the test system is arthritis. The experiment in a line: Canine arthritis and other sources of pain (Example 30). The format is in vivo, dog. The following applies: prior treatment. An excerpt: In each case the methylsulfonylmethane was admixed with the animal's food just prior to feeding.
This animal, although owned by a veterinarian, had not responded to a variety of therapeutic regimens over the previous 12 months. Methylsulfonylmethane was given to this dog in its food at a level of 1.5 grams b.i.d. X 1 month.
It was mobile but walked with obvious difficulty and discomfort. The animals was refractory to both cortisone and phenylbutazone.
The animal had not responded to either cortisone nor phenylbutazone and its condition was deteriorating rapidly. Methylsulfonylmethane was included in its diet at 1 gm/day b.i.d. After one week, the dog appeared to be pain-free.

A further series has as its system Trichomonas vaginalis. The experiment in a line: Treatment of Trichomonas vaginalis infection in subjects (Example 28(a)). The format is in vivo, human. As to conditions: human, in vivo. The source says:
Both had prior courses of therapy for this disorder without adequate response. […]
One subject was later reinfected by their sexual partner but the reinfection was cleared employing a daily douche of 5% aqueous methylsulfonylmethane for one week.

Another series has as its system platelet count. As to the kind of experiment: Low platelet count in lupus erythematosus (Example 22). The format is in vivo, human. The following applies: adult female, after prednisone therapy, before methylsulfonylmethane. An excerpt:
Methylsulfonylmethane administered orally raised the platelet count of an adult with lupus erythematosus from 84,000 (after prednisone therapy) to 200,000 over a 2-year period (1.5 gm/day in 3 doses).

The test system of series [1] is scarification of the right cheek pouch. The experiment in a line: Wound healing of the cheek pouch in hamsters (Example 17). The following applies: 0.1 gm/kg methylsulfonylmethane alone or 100 mg ascorbic acid alone in feed; controls day 4 and 5. The format is in vivo. As to the method:
Four sets of 5 hamsters were subject to scarification of the right cheek pouch, using standard methodology. One week prior to pouch injury, one set was started on a daily regimen of 0.1 gm/kg of methylsulfonylmethane in the diet of standard hamster feed, a second group was given 0.1 gm/kg of methylsulfonylmethane plus 100 mg of ascorbic acid in the same feed, a third group was given only 100 mg of ascorbic acid in the same feed, and the last group, fed only the feed, was held as control. Daily post-scarification examination was made to determine the rate of injury repair.

Series [2] relates to pain in the mid-back region. As to the kind of experiment: Acute pain, comparison with codeine, urinary calculi, subject three (Example 32). The format is in vivo, human. The following applies: for pain relief: subject three. As to the method:
Methylsulfonylmethane was compared with codeine for the control of pain in subject three, a person who awakened in the early morning with excruciating pain in the mid-back region, so intense it was difficult to pin-point a specific region. […] Analgesic requirements were 1/2 grain codeine with aspirin every two hours. […] The intense pain returned. The subject was given 1.5 g of methylsulfonylmethane dissolved in 1/2 glass of warm water. At 0.5 hours after taking the methylsulfonylmethane, the pain had essentially disappeared. Methylsulfonylmethane (1.5 g/day) was continued until the afternoon of the third day, when X-ray confirmed that the calculi yet obstructed the ureter. Subject was switched again to codeine with aspirin (1/2 grain×2 hours). […] Methylsulfonylmethane was again administered (1.5 g×4 hours). On day 5 the calculi passed. Recovery was uneventful, requiring neither codeine, methylsulfonylmethane,nor a urinary tract antimicrobial.

Regarding `CCCCC1C(=O)N(c2ccccc2)N(c2ccccc2)C1=O` [phenylbutazone, reference compound], in the series on arthritis, the “response, Dog A” value was “not responsive”; the “response, Dog C” value was “refractory”; the “response, Dog D” value is reported as “not responded”. For the molecule `Cc1ncc([N+](=O)[O-])n1CCO` [metronidazole HCL, reference compound], the “stomach upset and nausea” value in the series on Trichomonas vaginalis is “side effect experienced by one subject”. Take `C[C@]12C=CC(=O)C=C1CC[C@@H]1[C@@H]2C(=O)C[C@@]2(C)[C@H]1CC[C@]2(O)C(=O)CO` [prednisone, reference compound]: the platelet count in the series on platelet count is given as 84,000.

Turning to `C[C@]12CCC(=O)C=C1CC[C@@H]1[C@@H]2C(=O)C[C@@]2(C)[C@H]1CC[C@]2(O)C(=O)CO` [cortisone, reference compound], in the series with arthritis, the “response, Dog A” value was “not responsive”; the “response, Dog C” value is “refractory”; the “response, Dog D” value was “not responded”. `O=C1O[C@H]([C@@H](O)CO)C(O)=C1O` [vitamin C, ascorbic acid, reference compound]: the “day on which the 36-hour combination healing result was matched” value in series [1] was “three”. As to `CC(=O)Oc1ccccc1C(=O)O` [Aspirin], the pain relief result in series [2] is “ineffective”. `COc1ccc2c3c1O[C@H]1[C@@H](O)C=C[C@H]4[C@@H](C2)N(C)CC[C@@]341` [codeine]: in series [2] (day two, 1/2 grain codeine with aspirin every two hours), the mental confusion result is listed as “mental confusion”. Besides, the pain relief result in series [2] is reported as “acceptable relief”.
